pIC50, pKi: −log10 of the molar value.
biological target: T1, Metabotropic glutamate receptor 5 (Rattus norvegicus, UniProt P31424); test: Displacement of [3H]-M-MPEP from mGluR5 in rat cerebrocortical membrane preparation; format: cell membranes
T1 sequence (P31424 whole entry): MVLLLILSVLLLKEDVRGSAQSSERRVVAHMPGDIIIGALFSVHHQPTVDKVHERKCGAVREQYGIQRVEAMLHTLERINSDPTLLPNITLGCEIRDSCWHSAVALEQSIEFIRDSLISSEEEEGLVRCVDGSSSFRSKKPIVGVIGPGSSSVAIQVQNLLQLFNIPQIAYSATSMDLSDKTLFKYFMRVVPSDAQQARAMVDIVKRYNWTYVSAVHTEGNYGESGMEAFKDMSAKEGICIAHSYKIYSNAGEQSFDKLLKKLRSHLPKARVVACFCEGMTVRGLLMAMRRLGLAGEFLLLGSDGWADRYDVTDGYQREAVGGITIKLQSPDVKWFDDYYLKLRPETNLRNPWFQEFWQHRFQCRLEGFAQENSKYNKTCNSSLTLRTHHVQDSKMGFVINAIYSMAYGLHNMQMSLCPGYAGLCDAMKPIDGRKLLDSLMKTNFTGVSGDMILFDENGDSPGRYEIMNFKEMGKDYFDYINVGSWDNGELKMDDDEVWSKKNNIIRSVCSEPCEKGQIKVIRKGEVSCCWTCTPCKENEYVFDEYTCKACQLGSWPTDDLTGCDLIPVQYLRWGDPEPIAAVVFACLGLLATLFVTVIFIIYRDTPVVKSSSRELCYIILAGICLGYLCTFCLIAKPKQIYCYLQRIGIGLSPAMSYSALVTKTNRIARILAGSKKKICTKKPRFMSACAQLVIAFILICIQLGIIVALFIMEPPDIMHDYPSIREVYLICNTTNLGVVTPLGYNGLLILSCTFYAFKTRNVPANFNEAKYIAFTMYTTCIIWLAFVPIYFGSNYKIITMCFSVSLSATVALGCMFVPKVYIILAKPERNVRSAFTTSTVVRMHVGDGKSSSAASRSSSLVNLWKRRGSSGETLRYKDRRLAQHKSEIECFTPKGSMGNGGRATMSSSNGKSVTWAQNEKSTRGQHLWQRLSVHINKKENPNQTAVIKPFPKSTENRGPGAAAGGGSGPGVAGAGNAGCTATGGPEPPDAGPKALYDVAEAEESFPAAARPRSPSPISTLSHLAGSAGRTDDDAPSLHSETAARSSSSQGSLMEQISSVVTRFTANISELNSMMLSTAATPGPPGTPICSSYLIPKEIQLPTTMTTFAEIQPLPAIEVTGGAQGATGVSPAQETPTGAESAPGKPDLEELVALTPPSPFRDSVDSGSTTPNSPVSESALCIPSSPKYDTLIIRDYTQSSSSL

Structure (SMILES)	pKi
O=C(CCc1ccccc1)c1sc2ncccc2c1-c1ccccc1	6.14
O=C(Cc1ccc(F)cc1)c1sc2ncccc2c1-c1ccc(F)cc1	6.85
O=C(NCc1ccc(F)cc1)c1sc2ncccc2c1-c1ccc(F)cc1	6.51
O=C(CCc1cccc(F)c1)c1sc2ncccc2c1-c1ccc(F)cc1	6.65
O=C(CCc1ccc(F)cc1)c1sc2ncccc2c1-c1ccccc1	6.46
COc1ccc(CCC(=O)c2sc3ncccc3c2-c2ccccc2)cc1	5.60
O=C(CCc1ccc(F)cc1)c1sc2ncccc2c1-c1ccc(F)cc1	6.74

Further lines, results first:

pKi	Structure (SMILES)
7.91	O=S(=O)(c1ccc(Cl)cc1)c1sc2ncccc2c1-c1ccc(Cl)cc1
7.39	O=C(OCc1ccc(F)cc1)c1sc2ncccc2c1-c1ccc(Cl)cc1
7.08	O=C(Cc1ccc(F)cc1)c1sc2ncccc2c1-c1ccc(Cl)cc1

biological target: Metabotropic glutamate receptor 5 (Rattus norvegicus) (UniProt P31424); test: Displacement of [3H]-M-MPEP from mGluR5 in rat cerebrocortical membrane preparation at 1 uM; format: cell membranes
Sequence (P31424 21-1203 limits assumed): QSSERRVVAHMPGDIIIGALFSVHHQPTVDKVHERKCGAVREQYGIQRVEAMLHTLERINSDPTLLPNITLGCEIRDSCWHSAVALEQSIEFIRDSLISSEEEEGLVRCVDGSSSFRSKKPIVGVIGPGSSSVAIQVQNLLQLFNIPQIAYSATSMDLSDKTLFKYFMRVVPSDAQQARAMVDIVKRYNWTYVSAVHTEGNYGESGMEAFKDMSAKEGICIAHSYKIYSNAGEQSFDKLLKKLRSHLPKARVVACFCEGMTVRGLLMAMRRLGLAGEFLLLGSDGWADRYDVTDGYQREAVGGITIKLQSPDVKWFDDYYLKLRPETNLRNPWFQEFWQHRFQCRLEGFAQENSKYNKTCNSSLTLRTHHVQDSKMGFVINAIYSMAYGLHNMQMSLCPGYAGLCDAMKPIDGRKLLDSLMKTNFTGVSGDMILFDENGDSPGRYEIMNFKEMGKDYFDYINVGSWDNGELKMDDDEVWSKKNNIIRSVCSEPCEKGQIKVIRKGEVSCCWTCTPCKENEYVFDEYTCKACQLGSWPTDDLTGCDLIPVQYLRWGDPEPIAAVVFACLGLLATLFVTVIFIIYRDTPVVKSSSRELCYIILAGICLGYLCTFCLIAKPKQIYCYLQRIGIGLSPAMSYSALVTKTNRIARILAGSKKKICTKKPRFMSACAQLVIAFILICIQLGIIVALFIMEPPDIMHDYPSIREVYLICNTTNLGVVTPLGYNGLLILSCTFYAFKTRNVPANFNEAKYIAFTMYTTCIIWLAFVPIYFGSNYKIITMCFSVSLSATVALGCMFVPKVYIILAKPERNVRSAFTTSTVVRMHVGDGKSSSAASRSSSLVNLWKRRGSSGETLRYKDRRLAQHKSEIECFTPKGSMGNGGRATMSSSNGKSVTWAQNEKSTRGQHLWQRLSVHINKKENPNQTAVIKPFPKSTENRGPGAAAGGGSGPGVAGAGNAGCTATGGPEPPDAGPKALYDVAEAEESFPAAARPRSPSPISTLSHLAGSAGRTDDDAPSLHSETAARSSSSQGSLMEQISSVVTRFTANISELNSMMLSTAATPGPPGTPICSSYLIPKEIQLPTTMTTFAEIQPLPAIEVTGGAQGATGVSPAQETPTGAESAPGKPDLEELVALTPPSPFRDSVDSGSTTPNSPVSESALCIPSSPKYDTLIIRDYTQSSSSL

Structure (SMILES)	inhibition
CN(C(=O)c1sc2ncccc2c1-c1ccc(F)cc1)c1ccc(F)cc1	19%
Fc1ccc(C/C=C/c2sc3ncccc3c2-c2ccc(F)cc2)cc1	12%
Fc1ccc(-c2c(C3=NOC(c4ccc(F)cc4)C3)sc3ncccc23)cc1 (stereo not given)	52%
O=C(CCc1ccccc1)c1sccc1-c1ccccc1	0%
O=C(CCc1ccc(F)cc1)c1[nH]c2ccccc2c1-c1ccc(F)cc1	4%
O=C(CCc1ccc(F)cc1)c1sc2ccccc2c1-c1ccc(F)cc1	8%
O=C(CCc1ccccc1)c1sccc1-c1ccc(F)cc1	0%
CC(=O)c1sc2ncccc2c1-c1ccccc1	17%
OC(CCc1ccc(F)cc1)c1sc2ncccc2c1-c1ccc(F)cc1 (stereo not given)	3%
c1ccc(-c2csc3ncccc23)cc1	0%
Fc1ccc(CCCc2sc3ncccc3c2-c2ccc(F)cc2)cc1	0%

The remaining lines, values ahead:

inhibition	Structure (SMILES)
0%	Fc1ccc(-c2nc(-c3sc4ncccc4c3-c3ccc(Cl)cc3)no2)cc1
13%	CN(Cc1ccc(F)cc1)C(=O)c1sc2ncccc2c1-c1ccc(Cl)cc1
15%	O=C(Oc1ccc(F)cc1)c1sc2ncccc2c1-c1ccc(Cl)cc1
0%	O=C(Nc1ccc(F)cc1)c1sc2ncccc2c1-c1ccc(Cl)cc1
24%	Fc1ccc(-c2nnc(-c3sc4ncccc4c3-c3ccc(Cl)cc3)o2)cc1
30%	O=C(c1ccc(Cl)cc1)c1sc2ncccc2c1-c1ccc(F)cc1

biological target: T1, Metabotropic glutamate receptor 5; test: Inhibition of mGluR5 in rat embryo neuronal culture assessed as calcium level by Fluo-4/AM dye based fluorometry; format: functional

Structure (SMILES)	pIC50
O=C(CCc1ccccc1)c1sc2ncccc2c1-c1ccccc1	5.48
O=C(CCc1ccc(F)cc1)c1sc2ncccc2c1-c1ccccc1	5.68
COc1ccc(CCC(=O)c2sc3ncccc3c2-c2ccccc2)cc1	5.10
O=C(CCc1ccc(F)cc1)c1sc2ncccc2c1-c1ccc(F)cc1	6.00

Further lines, results first:

pIC50	Structure (SMILES)
7.34	O=S(=O)(c1ccc(Cl)cc1)c1sc2ncccc2c1-c1ccc(Cl)cc1
6.82	O=C(OCc1ccc(F)cc1)c1sc2ncccc2c1-c1ccc(Cl)cc1
6.46	O=C(Cc1ccc(F)cc1)c1sc2ncccc2c1-c1ccc(Cl)cc1

tested on: Rattus norvegicus; test: Anxiolytic activity in ip dosed rat assessed as increase in number of shocks measured for 30 mins Vogel punished drinking model; format: functional, organism-based

Structure (SMILES)	Activity
O=S(=O)(c1ccc(Cl)cc1)c1sc2ncccc2c1-c1ccc(Cl)cc1	Dose-dependent effect

From ChEMBL document CHEMBL3352069, “Thieno[2,3-b]pyridines as negative allosteric modulators of metabotropic GluR5 receptors: hit-to-lead optimization” (Bioorg Med Chem Lett, 2014)
